#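 Test compounds were applied to cells in 96-well plates for 48 hours at 5 doses. GI50: concentration for 50% inhibition of growth.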 Active and inactive are the calls of the source. No stated cut-off is given here; in the data, active = GI50 up to about 1.1 µM and inactive = higher.
# Columns and labels:
# Test in all cases: NCI tumour cell line growth inhibition, 48 h
# HCT-116 = tested on: HCT-116
# UACC-257 = tested on: UACC-257
# SF-268 = tested on: SF-268
# M14 = tested on: M14
# U-251 = tested on: U-251
# OVCAR-8 = tested on: OVCAR-8
# HOP-18 = tested on: HOP-18
# OVCAR-5 = tested on: OVCAR-5
# IGROV-1 = tested on: IGROV-1
# SNB-75 = tested on: SNB-75
# NCI-H23 = tested on: NCI-H23
# MOLT-4 = tested on: MOLT-4
# HCC 2998 = tested on: HCC 2998
# SF-295 = tested on: SF-295
# NCI-H460 = tested on: NCI-H460
# SNB-78 = tested on: SNB-78
# SK-MEL-2 = tested on: SK-MEL-2
# A498 = tested on: A498
# NCI-H226 = tested on: NCI-H226
# 786-0 = tested on: 786-0
# SN12C = tested on: SN12C
# SK-MEL-5 = tested on: SK-MEL-5
# DLD-1 = tested on: DLD-1
# COLO 205 = tested on: COLO 205
# XF498 = tested on: XF498
# Malme-3M = tested on: Malme-3M
# KM12 = tested on: KM12
# TK-10 = tested on: TK-10
# LXFL 529 = tested on: LXFL 529
# EKVX = tested on: EKVX
# M19-MEL = tested on: M19-MEL
# UO-31 = tested on: UO-31
# HCT-15 = tested on: HCT-15
# NCI-H522 = tested on: NCI-H522
# A549 = tested on: A549
# DMS-114 = tested on: DMS-114
# ACHN = tested on: ACHN
# CAKI-1 = tested on: CAKI-1
# HT-29 = tested on: HT-29
# SK-MEL-28 = tested on: SK-MEL-28
# SW-620 = tested on: SW-620
# SF-539 = tested on: SF-539
# LOX IMVI = tested on: LOX IMVI
# HOP-92 = tested on: HOP-92
# SNB-19 = tested on: SNB-19
# UACC-62 = tested on: UACC-62
# HOP-62 = tested on: HOP-62
# OVCAR-4 = tested on: OVCAR-4
# RXF 393 = tested on: RXF 393
# RXF 631 = tested on: RXF 631
# KM-20L2 = tested on: KM-20L2
# OVCAR-3 = tested on: OVCAR-3
# DMS-273 = tested on: DMS-273
# HL-60 = tested on: HL-60
# RPMI-8226 = tested on: RPMI-8226
# SR = tested on: SR
# SK-OV-3 = tested on: SK-OV-3
# K562 = tested on: K562
# CCRF-CEM = tested on: CCRF-CEM
smiles,measurement,setting,value
CCOC(=O)CC1=Nc2ccccc2SC1,GI50,HCT-116,> 100 µM (inactive)
same,GI50,UACC-257,> 100 µM (inactive)
same,GI50,SF-268,0.031 µM (active)
same,GI50,M14,> 100 µM (inactive)
same,GI50,U-251,> 100 µM (inactive)
same,GI50,OVCAR-8,> 100 µM (inactive)
same,GI50,HOP-18,> 100 µM (inactive)
same,GI50,OVCAR-5,> 100 µM (inactive)
same,GI50,IGROV-1,> 100 µM (inactive)
same,GI50,SNB-75,> 100 µM (inactive)
same,GI50,NCI-H23,> 100 µM (inactive)
same,GI50,MOLT-4,> 100 µM (inactive)
same,GI50,HCC 2998,> 100 µM (inactive)
same,GI50,SF-295,> 100 µM (inactive)
same,GI50,NCI-H460,> 100 µM (inactive)
same,GI50,SNB-78,> 100 µM (inactive)
same,GI50,SK-MEL-2,> 100 µM (inactive)
same,GI50,A498,> 100 µM (inactive)
same,GI50,NCI-H226,> 100 µM (inactive)
same,GI50,786-0,> 100 µM (inactive)
same,GI50,SN12C,> 100 µM (inactive)
same,GI50,SK-MEL-5,> 100 µM (inactive)
same,GI50,DLD-1,> 100 µM (inactive)
same,GI50,COLO 205,> 100 µM (inactive)
same,GI50,XF498,> 100 µM (inactive)
same,GI50,Malme-3M,> 100 µM (inactive)
same,GI50,KM12,> 100 µM (inactive)
same,GI50,TK-10,> 100 µM (inactive)
same,GI50,LXFL 529,> 100 µM (inactive)
same,GI50,EKVX,> 100 µM (inactive)
same,GI50,M19-MEL,> 100 µM (inactive)
same,GI50,UO-31,> 100 µM (inactive)
same,GI50,HCT-15,> 100 µM
same,GI50,NCI-H522,> 100 µM (inactive)
same,GI50,A549,> 100 µM (inactive)
same,GI50,DMS-114,> 100 µM (inactive)
same,GI50,ACHN,> 100 µM (inactive)
same,GI50,CAKI-1,> 100 µM (inactive)
same,GI50,HT-29,> 100 µM (inactive)
same,GI50,SK-MEL-28,1.29 µM (inactive)
same,GI50,SW-620,> 100 µM (inactive)
same,GI50,SF-539,> 100 µM (inactive)
same,GI50,LOX IMVI,> 100 µM (inactive)
same,GI50,HOP-92,> 100 µM (inactive)
same,GI50,SNB-19,> 100 µM (inactive)
same,GI50,UACC-62,> 100 µM (inactive)
same,GI50,HOP-62,> 100 µM (inactive)
same,GI50,OVCAR-4,> 100 µM (inactive)
same,GI50,RXF 393,> 100 µM (inactive)
same,GI50,RXF 631,> 100 µM (inactive)
same,GI50,KM-20L2,> 100 µM (inactive)
same,GI50,OVCAR-3,> 100 µM (inactive)
same,GI50,DMS-273,> 100 µM (inactive)
O=C1CC2C(=O)N(Cc3ccccc3)C1C(S(=O)(=O)c1ccccc1)C2S(=O)(=O)c1ccccc1 (centres undefined),GI50,HCT-116,4.68 µM (inactive)
same,GI50,UACC-257,1.61 µM (inactive)
same,GI50,SF-268,3.44 µM (inactive)
same,GI50,M14,1.92 µM (inactive)
same,GI50,U-251,2.92 µM (inactive)
same,GI50,OVCAR-8,1.94 µM (inactive)
same,GI50,HOP-18,3.78 µM (inactive)
same,GI50,OVCAR-5,18 µM (inactive)
same,GI50,IGROV-1,20.9 µM (inactive)
same,GI50,SNB-75,7.28 µM (inactive)
same,GI50,NCI-H23,3.25 µM (inactive)
same,GI50,HL-60,1.62 µM (inactive)
same,GI50,MOLT-4,2.55 µM (inactive)
same,GI50,RPMI-8226,3.08 µM (inactive)
same,GI50,HCC 2998,8.02 µM (inactive)
same,GI50,SF-295,22.6 µM (inactive)
same,GI50,NCI-H460,17.7 µM (inactive)
same,GI50,SNB-78,11.2 µM (inactive)
same,GI50,A498,18.3 µM (inactive)
same,GI50,NCI-H226,13.3 µM (inactive)
same,GI50,786-0,2.93 µM (inactive)
same,GI50,SN12C,1.68 µM (inactive)
same,GI50,SK-MEL-5,15.7 µM (inactive)
same,GI50,DLD-1,1.59 µM (inactive)
same,GI50,COLO 205,1.69 µM (inactive)
same,GI50,XF498,1.86 µM (inactive)
same,GI50,Malme-3M,2 µM (inactive)
same,GI50,KM12,13.7 µM (inactive)
same,GI50,SR,2.48 µM (inactive)
same,GI50,TK-10,1.78 µM (inactive)
same,GI50,LXFL 529,1.31 µM (inactive)
same,GI50,M19-MEL,2.06 µM (inactive)
same,GI50,SK-OV-3,17.6 µM (inactive)
same,GI50,UO-31,10.7 µM (inactive)
same,GI50,HCT-15,1.32 µM
same,GI50,NCI-H522,0.363 µM (active)
same,GI50,A549,19.1 µM (inactive)
same,GI50,DMS-114,1.29 µM (inactive)
same,GI50,K562,2.09 µM (inactive)
same,GI50,ACHN,1.67 µM (inactive)
same,GI50,CAKI-1,0.604 µM (active)
same,GI50,HT-29,2.17 µM (inactive)
same,GI50,SK-MEL-28,1.9 µM (inactive)
same,GI50,SW-620,0.528 µM (active)
same,GI50,SF-539,2.05 µM (inactive)
same,GI50,LOX IMVI,1.68 µM (inactive)
same,GI50,HOP-92,2.15 µM (inactive)
same,GI50,UACC-62,1.84 µM (inactive)
same,GI50,HOP-62,22.1 µM (inactive)
same,GI50,OVCAR-4,2.08 µM (inactive)
same,GI50,RXF 393,1.83 µM (inactive)
same,GI50,RXF 631,12.5 µM (inactive)
same,GI50,KM-20L2,2.4 µM (inactive)
same,GI50,OVCAR-3,1.78 µM (inactive)
same,GI50,CCRF-CEM,1.11 µM (active)
same,GI50,DMS-273,5.46 µM (inactive)
C/C(=N/NC(=O)CC(=O)N(C(=O)c1ccccc1Cl)c1ccc(C)cc1)c1cc2ccccc2oc1=O,GI50,HCT-116,> 100 µM (inactive)
same,GI50,UACC-257,> 100 µM (inactive)
same,GI50,SF-268,> 100 µM (inactive)
same,GI50,M14,65.3 µM (inactive)
same,GI50,U-251,> 100 µM (inactive)
same,GI50,OVCAR-8,> 100 µM (inactive)
same,GI50,HOP-18,> 100 µM (inactive)
same,GI50,OVCAR-5,> 100 µM (inactive)
same,GI50,IGROV-1,> 100 µM (inactive)
same,GI50,SNB-75,31 µM (inactive)
same,GI50,NCI-H23,45.5 µM (inactive)
same,GI50,HL-60,> 100 µM (inactive)
same,GI50,HCC 2998,> 100 µM (inactive)
same,GI50,SF-295,> 100 µM (inactive)
same,GI50,NCI-H460,> 100 µM (inactive)
same,GI50,SNB-78,> 100 µM (inactive)
same,GI50,A498,> 100 µM (inactive)
same,GI50,NCI-H226,> 100 µM (inactive)
same,GI50,786-0,> 100 µM (inactive)
same,GI50,SN12C,> 100 µM (inactive)
same,GI50,SK-MEL-5,65.3 µM (inactive)
same,GI50,DLD-1,> 100 µM (inactive)
same,GI50,COLO 205,> 100 µM (inactive)
same,GI50,XF498,> 100 µM (inactive)
same,GI50,Malme-3M,> 100 µM (inactive)
same,GI50,KM12,> 100 µM (inactive)
same,GI50,SR,6.11 µM (inactive)
same,GI50,TK-10,95.5 µM (inactive)
same,GI50,LXFL 529,> 100 µM (inactive)
same,GI50,EKVX,> 100 µM (inactive)
same,GI50,M19-MEL,> 100 µM (inactive)
same,GI50,UO-31,> 100 µM (inactive)
same,GI50,HCT-15,> 100 µM
same,GI50,NCI-H522,> 100 µM (inactive)
same,GI50,A549,> 100 µM (inactive)
same,GI50,DMS-114,49.8 µM (inactive)
same,GI50,K562,> 100 µM (inactive)
same,GI50,ACHN,> 100 µM (inactive)
same,GI50,CAKI-1,> 100 µM (inactive)
same,GI50,HT-29,> 100 µM (inactive)
same,GI50,SK-MEL-28,> 100 µM (inactive)
same,GI50,SW-620,> 100 µM (inactive)
same,GI50,SF-539,> 100 µM (inactive)
same,GI50,LOX IMVI,73.1 µM (inactive)
same,GI50,HOP-92,21.5 µM (inactive)
same,GI50,SNB-19,> 100 µM (inactive)
same,GI50,UACC-62,> 100 µM (inactive)
same,GI50,HOP-62,> 100 µM (inactive)
same,GI50,OVCAR-4,> 100 µM (inactive)
same,GI50,RXF 393,> 100 µM (inactive)
same,GI50,RXF 631,> 100 µM (inactive)
same,GI50,KM-20L2,> 100 µM (inactive)
same,GI50,OVCAR-3,> 100 µM (inactive)
same,GI50,CCRF-CEM,> 100 µM (inactive)
same,GI50,DMS-273,> 100 µM (inactive)

# Reference: ChEMBL document CHEMBL1201862, “PubChem BioAssay data set” (2004)
